Activity calls are given as the source filed them. The rule behind the calls is not given here.
Key:
[1] = Cytotoxicity against human MeT-5A cells; format: cell-based
[2] = target: T1, Histone deacetylase (Homo sapiens) (UniProt Q13547+O15379+Q9UBN7+Q92769+Q9UQL6+Q8WUI4+Q9BY41+Q96DB2+P56524+Q9UKV0+Q969S8); settings: HeLa, at 12.5 µM
Description: Inhibition of human HDAC in HeLa cells nuclear extract at 12.5 uM by fluorimetric assay

HepG2 = test: Antiproliferative activity against human HepG2 cells assessed as cell proliferation after 72 hrs by MTT assay; format: functional; design: concentration or dose not given beside the values
MCF7 = test: Antiproliferative activity against human MCF7 cells assessed as cell proliferation after 72 hrs by MTT assay; format: functional; design: concentration or dose not given beside the values
[3] = target: T2, Protein deacetylase HDAC6 (Homo sapiens, UniProt Q9UBN7); test: Inhibition of HDAC6 (unknown origin) by fluorimetric assay
T2 sequence (Q9UBN7 whole entry): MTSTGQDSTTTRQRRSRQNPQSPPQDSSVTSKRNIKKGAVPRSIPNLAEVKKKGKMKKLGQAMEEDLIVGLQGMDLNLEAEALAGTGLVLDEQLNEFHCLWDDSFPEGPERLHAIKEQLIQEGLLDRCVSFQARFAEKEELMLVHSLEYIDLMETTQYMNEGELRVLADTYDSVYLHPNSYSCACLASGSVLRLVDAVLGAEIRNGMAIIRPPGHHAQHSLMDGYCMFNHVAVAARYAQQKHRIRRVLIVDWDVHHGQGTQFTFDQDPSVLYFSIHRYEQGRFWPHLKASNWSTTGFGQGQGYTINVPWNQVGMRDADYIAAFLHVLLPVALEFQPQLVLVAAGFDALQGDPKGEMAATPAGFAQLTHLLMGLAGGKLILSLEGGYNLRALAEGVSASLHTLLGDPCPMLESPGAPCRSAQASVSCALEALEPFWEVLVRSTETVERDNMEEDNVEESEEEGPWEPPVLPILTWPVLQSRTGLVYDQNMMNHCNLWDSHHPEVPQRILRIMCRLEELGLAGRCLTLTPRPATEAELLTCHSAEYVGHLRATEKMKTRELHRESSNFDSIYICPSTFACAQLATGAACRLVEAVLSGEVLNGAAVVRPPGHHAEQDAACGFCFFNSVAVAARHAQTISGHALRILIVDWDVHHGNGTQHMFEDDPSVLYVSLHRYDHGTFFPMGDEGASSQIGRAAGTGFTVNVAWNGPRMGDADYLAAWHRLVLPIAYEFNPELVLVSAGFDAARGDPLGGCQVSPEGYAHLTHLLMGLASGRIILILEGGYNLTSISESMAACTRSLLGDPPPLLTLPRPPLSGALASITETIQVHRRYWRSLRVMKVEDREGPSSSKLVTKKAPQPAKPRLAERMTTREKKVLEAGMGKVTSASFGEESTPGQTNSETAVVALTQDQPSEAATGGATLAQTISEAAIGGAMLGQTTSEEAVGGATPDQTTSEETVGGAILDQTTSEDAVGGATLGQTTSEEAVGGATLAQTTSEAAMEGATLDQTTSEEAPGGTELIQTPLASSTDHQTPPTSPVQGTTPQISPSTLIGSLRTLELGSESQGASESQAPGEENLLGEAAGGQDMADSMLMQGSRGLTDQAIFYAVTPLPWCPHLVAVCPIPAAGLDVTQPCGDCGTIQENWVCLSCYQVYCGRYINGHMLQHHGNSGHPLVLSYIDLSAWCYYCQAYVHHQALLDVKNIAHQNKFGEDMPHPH

[4] = target: T2, Protein deacetylase HDAC6; test: Inhibition of HDAC6 in human HeLa cells assessed as inhibition of tubulin deacetylation incubated for overnight by cELISA; format: cell-based
Histone deacetylase 3 = Histone deacetylase 3 (Homo sapiens, UniProt O15379); test: Inhibition of HDAC3 (unknown origin) by fluorimetric assay
[5] = target: T1, Histone deacetylase (Homo sapiens); test: Inhibition of HDAC in human MeT-5A cells assessed as hisone H3 acetylation after 16 hrs by BRET assay; format: cell-based
[6] = target: T1, Histone deacetylase (Homo sapiens); test: Inhibition of HDAC in human MeT-5A cells assessed as hisone H3 acetylation at 100 uM after 16 hrs by BRET assay; format: cell-based
Homo sapiens [7] = organism: Homo sapiens; test: Selectivity index, ratio of IC50 for HDAC1 (unknown origin) to IC50 for HDAC6 (unknown origin)
Histone deacetylase 2 = Histone deacetylase 2 (Homo sapiens, UniProt Q92769); test: Inhibition of HDAC2 (unknown origin) by fluorimetric assay
Homo sapiens [8] = organism: Homo sapiens; test: Selectivity index, ratio of IC50 for HDAC2 (unknown origin) to IC50 for HDAC6 (unknown origin)
Histone deacetylase 1 = Histone deacetylase 1 (Homo sapiens, UniProt Q13547); test: Inhibition of HDAC1 (unknown origin) by fluorimetric assay
Histone deacetylase 1, sequence (Q13547 whole entry): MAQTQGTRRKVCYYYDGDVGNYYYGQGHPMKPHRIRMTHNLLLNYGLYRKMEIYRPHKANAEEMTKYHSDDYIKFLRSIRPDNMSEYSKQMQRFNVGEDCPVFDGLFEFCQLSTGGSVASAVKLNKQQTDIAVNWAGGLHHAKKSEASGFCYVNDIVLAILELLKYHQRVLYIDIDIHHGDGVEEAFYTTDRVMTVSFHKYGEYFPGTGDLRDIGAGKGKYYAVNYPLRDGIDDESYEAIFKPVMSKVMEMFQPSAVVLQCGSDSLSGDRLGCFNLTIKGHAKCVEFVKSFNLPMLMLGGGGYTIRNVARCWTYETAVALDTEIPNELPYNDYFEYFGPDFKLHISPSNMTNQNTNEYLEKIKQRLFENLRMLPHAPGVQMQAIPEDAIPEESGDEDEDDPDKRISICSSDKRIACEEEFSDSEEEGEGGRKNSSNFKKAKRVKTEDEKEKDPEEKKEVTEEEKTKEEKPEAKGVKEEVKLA

Histone deacetylase 3, sequence (O15379 whole entry): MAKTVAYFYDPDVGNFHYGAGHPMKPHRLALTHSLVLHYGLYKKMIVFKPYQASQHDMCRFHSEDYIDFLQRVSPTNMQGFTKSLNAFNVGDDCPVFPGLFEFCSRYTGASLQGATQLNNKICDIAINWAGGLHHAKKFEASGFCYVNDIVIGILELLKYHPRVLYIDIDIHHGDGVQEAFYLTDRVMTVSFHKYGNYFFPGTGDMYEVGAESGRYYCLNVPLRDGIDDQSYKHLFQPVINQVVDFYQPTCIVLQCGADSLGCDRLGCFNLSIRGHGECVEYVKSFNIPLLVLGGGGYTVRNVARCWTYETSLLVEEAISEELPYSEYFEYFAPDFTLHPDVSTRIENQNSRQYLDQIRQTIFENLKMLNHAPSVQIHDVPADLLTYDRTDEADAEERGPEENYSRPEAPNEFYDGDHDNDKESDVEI
Histone deacetylase 2, sequence (Q92769 whole entry): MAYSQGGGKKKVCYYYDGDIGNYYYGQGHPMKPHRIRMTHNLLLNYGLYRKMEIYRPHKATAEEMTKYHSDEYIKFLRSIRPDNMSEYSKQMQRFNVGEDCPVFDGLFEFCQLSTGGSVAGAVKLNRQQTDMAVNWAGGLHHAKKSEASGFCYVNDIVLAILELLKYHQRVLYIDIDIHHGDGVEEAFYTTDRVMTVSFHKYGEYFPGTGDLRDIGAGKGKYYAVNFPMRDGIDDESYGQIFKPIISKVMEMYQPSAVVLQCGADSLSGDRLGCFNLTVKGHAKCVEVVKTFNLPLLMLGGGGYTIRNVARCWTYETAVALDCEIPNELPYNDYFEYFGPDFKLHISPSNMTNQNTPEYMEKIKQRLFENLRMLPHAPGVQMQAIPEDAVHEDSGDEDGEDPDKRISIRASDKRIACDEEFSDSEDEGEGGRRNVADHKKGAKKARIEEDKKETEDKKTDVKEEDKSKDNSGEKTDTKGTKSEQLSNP

**Q.** For `O=C(CCCCCCC(=O)Nc1ccccc1)NO` [VORINOSTAT], which Activity [1] is on record?
**A.** Non-toxic

**Q.** Which inhibition [2] does the source give for `CC(=O)Nc1ccc(C(=O)Nc2ccccc2N)cc1` [TACEDINALINE] here?
**A.** 42%

**Q.** What about the Activity [1] of the same compound?
**A.** Non-toxic

**Q.** With `C=CCCC(=O)Nc1ccccc1NC(=O)OC(C)(C)C` as the compound, how does the Cell proliferation (HepG2) read?
**A.** 142%

**Q.** What about the Cell proliferation (MCF7) of the same compound?
**A.** 50%

**Q.** What does the source list for `O=C(CCCCCCC(=O)NO)NO` [SUBEROHYDROXAMIC ACID]?
**A.** Cell proliferation (HepG2): 107%; IC50 [3]: 2.03 µM; Cell proliferation (MCF7): 93%; EC50 [4]: 1.1 µM; Activity [1]: Non-toxic; IC50 (Histone deacetylase 3): 62.6 µM

**Q.** With `CC(C)(C)OC(=O)Nc1ccccc1NC(=O)CC/C=C/CCC(=O)Nc1ccccc1NC(=O)OC(C)(C)C` as the compound, how does the inhibition [5] read?
**A.** inactive

**Q.** Which Cell proliferation (HepG2) does the source give for `Nc1ccccc1NC(=O)CCCCCCC(=O)Nc1ccccc1N` here?
**A.** 114%

**Q.** And the inhibition [5]?
**A.** Active

**Q.** And the Cell proliferation (MCF7)?
**A.** 92%

**Q.** And the Activity [1]?
**A.** Non-toxic

**Q.** For `CC(C)(C)OC(=O)ON(C(=O)CC/C=C/CCC(=O)N(OC(=O)OC(C)(C)C)C(=O)OC(C)(C)C)C(=O)OC(C)(C)C`, which Cell proliferation (HepG2) is on record?
**A.** 138%

**Q.** And the inhibition [5]?
**A.** inactive

**Q.** And the Cell proliferation (MCF7)?
**A.** 100%

**Q.** What about the EC50 [4] of the same compound?
**A.** 17.7 µM

**Q.** What about the Activity [1] of the same compound?
**A.** Non-toxic

**Q.** With `C=CCCC(=O)N(OC(=O)OC(C)(C)C)C(=O)OC(C)(C)C` as the compound, how does the Cell proliferation (HepG2) read?
**A.** 110%

**Q.** And the Cell proliferation (MCF7)?
**A.** 94%

**Q.** What does the source list for `CC(C)(C)OC(=O)Nc1ccccc1NC(=O)CCCCCCC(=O)Nc1ccccc1NC(=O)OC(C)(C)C`?
**A.** Cell proliferation (HepG2): 136%; inhibition [5]: inactive; Cell proliferation (MCF7): 87%

**Q.** With `CC(C)(C)OC(=O)ON(C(=O)CCCCCCC(=O)N(OC(=O)OC(C)(C)C)C(=O)OC(C)(C)C)C(=O)OC(C)(C)C` as the compound, how does the inhibition [2] read?
**A.** 60%

**Q.** And the Cell proliferation (HepG2)?
**A.** 108%

**Q.** And the inhibition [5]?
**A.** Active

**Q.** What about the IC50 [3] of the same compound?
**A.** 3.39 µM

**Q.** What about the Cell proliferation (MCF7) of the same compound?
**A.** 92%

**Q.** And the Activity [6]?
**A.** 17 mU

**Q.** What about the Ratio IC50 (Homo sapiens [7]) of the same compound?
**A.** 10

**Q.** What about the EC50 [4] of the same compound?
**A.** 5 µM

**Q.** And the IC50 (Histone deacetylase 2)?
**A.** 29.8 µM

**Q.** What about the Ratio IC50 (Homo sapiens [8]) of the same compound?
**A.** 10

**Q.** What about the Activity [1] of the same compound?
**A.** Non-toxic

**Q.** And the IC50 (Histone deacetylase 1)?
**A.** 30.6 µM

**Q.** And the IC50 (Histone deacetylase 3)?
**A.** > 100 µM

Source: ChEMBL document CHEMBL3739297, “Cross metathesis with hydroxamate and benzamide BOC-protected alkenes to access HDAC inhibitors and their biological evaluation highlighted intrinsic activity of BOC-protected dihydroxamates” (Bioorg Med Chem Lett, 2016)
